SMILES strings stand for the structures.

The experiment deals with T1, GST-Met 248 PDE 4a (Homo sapiens, UniProt P27815).
T1 construct: phosphodiesterase IVa (met-248); made in house; host or cells: baculovirus/Sf-9
T1 sequence (P27815 248-886 limits assumed): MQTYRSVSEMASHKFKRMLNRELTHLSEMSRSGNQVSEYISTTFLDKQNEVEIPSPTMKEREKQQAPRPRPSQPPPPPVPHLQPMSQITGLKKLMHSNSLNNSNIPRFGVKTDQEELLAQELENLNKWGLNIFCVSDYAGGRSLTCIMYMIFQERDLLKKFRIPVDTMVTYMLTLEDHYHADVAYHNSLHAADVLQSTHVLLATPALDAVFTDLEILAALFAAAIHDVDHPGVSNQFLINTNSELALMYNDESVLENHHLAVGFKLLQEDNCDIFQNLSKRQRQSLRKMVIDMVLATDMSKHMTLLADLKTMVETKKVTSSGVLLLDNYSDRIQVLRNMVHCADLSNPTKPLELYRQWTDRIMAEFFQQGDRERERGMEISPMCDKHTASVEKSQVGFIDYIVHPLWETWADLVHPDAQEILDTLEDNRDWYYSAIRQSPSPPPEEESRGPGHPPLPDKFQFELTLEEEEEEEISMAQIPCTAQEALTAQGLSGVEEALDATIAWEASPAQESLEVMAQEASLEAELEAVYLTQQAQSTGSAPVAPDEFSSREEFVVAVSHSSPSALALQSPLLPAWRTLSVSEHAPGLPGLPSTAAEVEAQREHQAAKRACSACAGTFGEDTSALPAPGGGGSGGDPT
The experiment can be described thus: SPA based PDE activity assay (IC50, purified GST fusion protein of human recombinant phosphodiesterase IVa (met-248), baculovirus/Sf-9). Format: biochemical. The conditions noted are these: 100 nM cAMP, 30° C., pH 7.5, 10 min; approximated by non-linear regression of a ten point titration. The procedure:
SPA BASED PDE ACTIVITY ASSAY PROTOCOL Compounds which inhibit the hydrolysis of cAMP to AMP by the type-IV cAMP-specific phosphodiesterases were screened in 96-well plate format as follows: In a 96 well-plate at 30° C. was added the test compound (dissolved in 2 μl DMSO), […] of substrate buffer containing [2,8-^3 H] adenosine 3',5'-cyclic phosphate (cAMP, 100 nM to 50 μM), 10 mM MgCl2, 1 mM EDTA, 50 mM Tris, pH 7.5. The reaction was initiated by the addition of […] of human recombinant PDE-IV (the amount was controlled so that ~10% product was formed in 10 min.). The reaction was stopped after 10 min. by the addition of 1 mg of PDE-SPA beads (Amersham). The product AMP generated was quantified on a Microbeta 96-well plate counter. The signal in the absence of enzyme was defined as the background. 100% activity was defined as the signal detected in the presence of enzyme and DMSO with the background subtracted. Percentage of inhibition was calculated accordingly. IC50 value was approximated with a non-linear regression fit using the standard 4-parameter/multiple binding sites equation from a ten point titration. IC50 values shown in Table 7 were determined with 100 nM cAMP using the purified GST fusion protein of the human recombinant phosphodiesterase IVa (met-248) produced from a baculovirus/Sf-9 expression system.
The term IC50 denotes the point on the concentration scale where inhibition reaches its midpoint. Turning to `[O-][n+]1ccc(CC(c2ccc(Oc3ccc(OC(F)(F)F)cc3)nc2)c2ccc(OC(F)F)c(OC(F)F)c2)cc1` (racemic) [Example 1, 4-{2-[3,4-Bis(difluoromethoxy)phenyl]-2-{6-[4-(trifluoromethoxy)phenoxy]3-pyridyl}ethyl}pyridine-N-oxide], the concentration for half-maximal inhibition (IC50) was determined as 2.85 nM.
Then `[O-][n+]1ccc(CC(c2ccc(OCc3ccc(F)c(F)c3)nc2)c2ccc(OC(F)F)c(OC(F)F)c2)cc1` (racemic) [Example 16, 4-{2-[3,4-Bis(difluoromethoxy)phenyl]-2-[6-(3,4-difluorobenzyloxy)3-pyridyl]ethyl}pyridine-N-oxide], with 1.43 nM; and `CC(C)(COc1ccc(C(Cc2cc[n+]([O-])cc2)c2ccc(OC(F)F)c(OC(F)F)c2)cn1)c1ccc(F)cc1` (racemic) [Example 23, 4-{2-[3,4-Bis(difluoromethoxy)phenyl]-2-{6-[2-methyl-2-(4-fluorophenyl)propyloxy]3-pyridyl}ethyl}pyridine-N-oxide], with 3.2 nM; and `CC(C)(Cc1ccccc1)Oc1ccc(C(Cc2cc[n+]([O-])cc2)c2ccc(OC(F)F)c(OC(F)F)c2)cn1` (racemic) [Example 28, 4-{2-[3,4-Bis(difluoromethoxy)phenyl]-2-[6-(1,1-dimethyl-2-phenylethoxy)3-pyridyl]ethyl}pyridine-N-oxide], with 0.2 nM.

The record behind these values is US6180650A, “Heterosubstituted pyridine derivatives as PDE 4 inhibitors” (Merck Frosst Canada & Co., priority 2000, dated 2001).
